# In the supplement of paper PMC10307832:
# Assays:
# Test in all cases: relative viability (nuclei count vs DMSO), 5 days (fraction); higher = more cells survive
# Bemcentinib + OSI-027 = compound: Nc1nc(Nc2ccc3c(c2)CC[C@@H](N2CCCC2)CC3)nn1-c1cc2c(nn1)-c1ccccc1CCC2 [Bemcentinib] + COc1cccc2cc(-c3nc([C@H]4CC[C@H](C(=O)O)CC4)n4ncnc(N)c34)[nH]c12 [OSI-027] (partner 0.5 µM)
# Summary of the method: (§1)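 Relative viability equals treated-well nuclei counts divided by vehicle-well nuclei counts. Counts came from 4× images of lung cancer cell lines grown in 1536-well plates for 5 days after pin-tool dosing on the day after seeding. Dosing used one drug alone or a fixed anchor-drug dose plus five library-drug doses (not always all listed) in √10 steps, and values are medians of duplicate plates.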
# [1] = compound: CC1=CC=C(C=C1)C(=O)CN2C3=C(CCCC3)SC2=N [Pifithrin_alpha] + O=C(CCCCCCC(=O)Nc1ccccc1)NO [Vorinostat] (partner 1 µM)
# Summary of the method: as §1
# Axitinib + Lapatinib = compound: CNC(=O)c1ccccc1Sc1ccc2c(/C=C/c3ccccn3)n[nH]c2c1 [Axitinib] + CS(=O)(=O)CCNCc1ccc(-c2ccc3ncnc(Nc4ccc(OCc5cccc(F)c5)c(Cl)c4)c3c2)o1 [Lapatinib] (partner 2 µM)
# Summary of the method: as §1
# [2] = compound: CC1=CC=C(C=C1)C(=O)CN2C3=C(CCCC3)SC2=N [Pifithrin_alpha] + NC(=O)Nc1cc(-c2cccc(F)c2)sc1C(=O)N[C@H]1CCCNC1 [AZD7762] (partner 0.2 µM)
# Summary of the method: as §1
cell line,measurement,setting,value
NCI-H650,relative viability,Bemcentinib + OSI-027; first compound 0.04 µM,0.468
same,relative viability,Bemcentinib + OSI-027; first compound 0.1265 µM,0.501
same,relative viability,Bemcentinib + OSI-027; first compound 0.4 µM,0.582
same,relative viability,Bemcentinib + OSI-027; first compound 1.265 µM,0.496
same,relative viability,Bemcentinib + OSI-027; first compound 4 µM,0.512
same,relative viability,[1]; first compound 3.162 µM,0.439
same,relative viability,[1]; first compound 10 µM,0.395
same,relative viability,[1]; first compound 31.62 µM,0.305
same,relative viability,[1]; first compound 100 µM,0.399
same,relative viability,Axitinib + Lapatinib; first compound 0.005 µM,0.792
same,relative viability,Axitinib + Lapatinib; first compound 0.01581 µM,0.837
same,relative viability,Axitinib + Lapatinib; first compound 0.05 µM,1.08
same,relative viability,Axitinib + Lapatinib; first compound 0.1581 µM,0.919
same,relative viability,Axitinib + Lapatinib; first compound 0.5 µM,0.932
same,relative viability,[2]; first compound 3.162 µM,1.08
same,relative viability,[2]; first compound 10 µM,0.932
same,relative viability,[2]; first compound 31.62 µM,0.718
same,relative viability,[2]; first compound 100 µM,0.905
